Numbers after ± are expanded uncertainties.
Experiment: cn = amount concentration of the nth substance listed, in mol/dm3
Details: 101 kPa, Liquid; for speed of sound: Pulse-echo method

NC(N)=O [urea] + O
speed of sound (283.1 K, c1 = 4.275): 1578.8 ± 2.5 m/s
mass density (283.1 K, c1 = 4.275): 1069 ± 4 kg/m3
speed of sound (288.15 K, c1 = 2.065): 1527.2 ± 2.4 m/s
speed of sound (288.15 K, c1 = 3.148): 1557.2 ± 2.5 m/s
speed of sound (288.15 K, c1 = 4.269): 1587.6 ± 2.5 m/s
speed of sound (288.15 K, c1 = 5.421): 1617 ± 2.5 m/s
speed of sound (288.15 K, c1 = 7.839): 1676.8 ± 2.6 m/s
speed of sound (288.15 K, c1 = 9.106): 1706.5 ± 2.7 m/s
mass density (288.15 K, c1 = 2.065): 1032 ± 3 kg/m3
mass density (288.15 K, c1 = 3.148): 1049 ± 4 kg/m3
mass density (288.15 K, c1 = 4.269): 1067 ± 4 kg/m3
mass density (288.15 K, c1 = 5.421): 1084 ± 4 kg/m3
mass density (288.15 K, c1 = 7.839): 1120 ± 5 kg/m3
mass density (288.15 K, c1 = 9.106): 1138 ± 6 kg/m3
speed of sound (298.15 K, c1 = 2.059): 1548.9 ± 2.5 m/s
speed of sound (298.15 K, c1 = 3.139): 1574.8 ± 2.5 m/s
speed of sound (298.15 K, c1 = 4.253): 1601.1 ± 2.5 m/s
speed of sound (298.15 K, c1 = 5.405): 1627.1 ± 2.6 m/s
speed of sound (298.15 K, c1 = 7.802): 1680.3 ± 2.6 m/s
speed of sound (298.15 K, c1 = 9.069): 1706.3 ± 2.7 m/s
mass density (298.15 K, c1 = 2.059): 1030 ± 3 kg/m3
mass density (298.15 K, c1 = 3.139): 1047 ± 4 kg/m3
mass density (298.15 K, c1 = 4.253): 1063 ± 4 kg/m3
mass density (298.15 K, c1 = 5.405): 1081 ± 4 kg/m3
mass density (298.15 K, c1 = 7.802): 1115 ± 5 kg/m3
mass density (298.15 K, c1 = 9.069): 1134 ± 5 kg/m3
speed of sound (308.15 K, c1 = 2.051): 1564.8 ± 2.5 m/s
speed of sound (308.15 K, c1 = 3.124): 1587.1 ± 2.5 m/s
speed of sound (308.15 K, c1 = 4.232): 1610.9 ± 2.5 m/s
speed of sound (308.15 K, c1 = 5.378): 1633.2 ± 2.6 m/s
speed of sound (308.15 K, c1 = 7.765): 1680.9 ± 2.6 m/s
speed of sound (308.15 K, c1 = 9.021): 1704.1 ± 2.7 m/s
mass density (308.15 K, c1 = 2.051): 1026 ± 3 kg/m3
mass density (308.15 K, c1 = 3.124): 1041 ± 4 kg/m3
mass density (308.15 K, c1 = 4.232): 1058 ± 4 kg/m3
mass density (308.15 K, c1 = 5.378): 1076 ± 4 kg/m3
mass density (308.15 K, c1 = 7.765): 1109 ± 5 kg/m3
mass density (308.15 K, c1 = 9.021): 1128 ± 5 kg/m3

Reference: the NIST ThermoML archive (doi:10.1021/je049971a)
